The values below are quoted from earlier work in patent publication US6818776B2, “Alkali metal salt of thiazolidine-2,4-dione derivative” (Kyorin Pharmaceutical Co., Ltd., priority 2000, dated 2004).

For data set [1] the following is noted: reported in M. Nomura et al, Bioorg. Med. Chem. Lett., 1999, 9, 533.
The test system of data set [2] is human peroxisome proliferator-activated receptor (PPAR). The note with it: reported in K. Murakami et al, Diabetes. 1998, 47, 1841.

For the molecule `COc1ccc(CC2SC(=O)NC2=O)cc1C(=O)NCc1ccc(C(F)(F)F)cc1` (centres unmarked) [KRP-297, 5-[(2,4-Dioxothiazolidin-5-yl)methyl]-2-methoxy-N-[[4-(trifluoromethyl)phenyl]methyl]benzamide], the antihyperglycemic activity result in data set [1] was “excellent antihyperglycemic activity”. For the same molecule, the “agonistic action against human PPAR” value in data set [2] is recorded as “agonistic action”.
